Measured values published in patent US20240261236A1, “METHODS OF USING NMDA RECEPTOR ANTAGONISTS” (Seelos Therapeutics, Inc., priority 2021, published 2024).

Assays:
[1] = tested on: adults with major depressive disorder (MDD) who are at imminent risk of suicide; test: S-STS CMCM clinician judgment, risk of suicide at this time; format: in vivo, human; details: 90 mg IN+SOC; for S-STS CMCM score (range 0-9; risk of suicide at this time, FIGS. 20A-20B): 24 hours post-administration
Text: The S-STS CMCM (version 01/01/19) is a clinician-rated outcome measure which assesses SI/B on a standard 22-item scale, as well as multiple patient and clinician-rated items. The first 16 items are rated on a Likert-type scale ranging from “not at all” (0 units) to “extremely” (4 units), where select scoring (i.e., 4 specific items are scored based on the highest score on 2 of those items) yields a total score ranging from 0 units to 52 units. The final 6 items are used only when the patient misses a visit and is unable to complete the scale; if that missed visit is due to attempted or completed suicide, the possible maximum score is 100. The CMCM also yields 5 different single-item global assessments: 1) subject-rated likelihood of a suicide attempt; 2) subject-rated treatment needed; 3) clinician global severity of suicidal impulses, thoughts, and behaviors; 4) clinician judgment of suicide risk at this time and level of management needed for suicidality; and 5) clinician judgment of subject's likelihood of making a suicide attempt or of dying by suicide in the next 7 days.
(§1) The secondary endpoints are the change from baseline at 24 hours, as well as at Day 16, in the following: • (1) S-STS total score • (2) MADRS Total at Day 16 (only) • (3) Clinical Global Impression (CGI) of Severity for SI/B (CGIS-SI/B) and Change in SI/B (CGIC-SI/B) • (4) Patient Global Impression (PGI) of Severity for SI/B (PGIS-SI/B) and Change in SI/B (PGIC-SI/B • (5) S-STS Clinician-Rated Global Severity of Suicidal Impulses, Thoughts, and Behaviors • (6) S-STS Clinician judgment of subject's risk of a suicide attempt or death by suicide at this time • (7) S-STS Clinician judgment of subject's likelihood (risk) of making a suicide attempt or of dying by suicide in the next 7 days • (8) S-STS Subject-rated global severity of suicidal impulses, thoughts, and behavior • (9) S-STS Subject-rated treatment needed score • (10) MADRS item 10 response rate (response ≤3 units) • (11) MADRS Total response (total score ≥50% reduction from baseline) • (12) MADRS Total remission (total score ≤12 units)

[2] = tested on: adults with major depressive disorder (MDD) who are at imminent risk of suicide; test: MADRS item 10 (suicidal thoughts), Phase 2 Part 1; format: in vivo, human; details: for MADRS item 10 (suicidality) score: 24 hours post-administration, baseline 5 units; for MADRS Item 10 mean score: baseline 5.2; for MADRS Suicide Item-10 response rate: summary through Day 29/30
Text: The Montgomery-Åsberg Depression Rating Scale (MADRS) is a diagnostic questionnaire that can be used to measure the severity of a depressive episode in a subject. In some embodiments, the MADRS can be used to measure suicidal ideation. For example, the MADRS includes 10 items directed to the following: 1) apparent sadness (e.g., representing despondency, gloom and despair that is more than just ordinary transient low spirits that is reflected in speech, facial expression, and posture); 2) reported sadness (e.g., representing reports of depressed mood, regardless of whether it is reflected in appearance or not and can include low spirits, despondency or the feeling of being beyond help and without hope); 3) inner tension (e.g., representing feelings of ill-defined discomfort, edginess, inner turmoil, mental tension mounting to either panic, dread or anguish); 4) reduced sleep (e.g., representing the experience of reduced duration or depth of sleep compared to the subject's own normal pattern when well); 5) reduced appetite (e.g., representing the feeling of a loss of appetite compared with when-well); 6) concentration difficulties (e.g., representing difficulties in collecting one's thoughts mounting to an incapacitating lack of concentration); 7) lassitude (e.g., representing difficulty in getting started or slowness in initiating and performing everyday activities); 8) inability to feel (e.g., representing the subjective experience of reduced interest in the surroundings, or activities that normally give pleasure, and the ability to react with adequate emotion to circumstances or people is reduced); 9) pessimistic thoughts (e.g., representing thoughts of guilt, inferiority, self-reproach, sinfulness, remorse and ruin); and 10) suicidal thoughts (e.g., representing the feeling that life is not worth living, that a natural death would be welcome, suicidal thoughts, and preparations for suicide). Each item is rated from 0 units to 6 units, with 0 reflecting that the subject is not at all as described by the item and 6 reflecting that the subject is extremely like what is described by the item. […] As another example, for suicidal thoughts, a score of 0 units can indicate that the subject enjoys life or takes it as it comes; a score of 2 units can indicate that the subject is weary of life and may have fleeting suicidal thoughts; a score of 4 units can indicate that the subject feels he or she would probably be better off dead (e.g., suicidal thoughts are common, and suicide is considered as a possible solution, but without specific plans or intention); and a score of 6 units can indicate that the subject has explicit plans for suicide when there is an opportunity (e.g., the subject has made active preparations for suicide). Thus, the total score, after summation of each score for each item, is on a scale of 0 units to 60 units.
In some embodiments, item 10, e.g., suicidal thoughts, of the MADRS can be used to measure suicidal ideation.
as §1, with “≤12 units) […]” for “≤12 units)”

## CNC1(c2ccccc2Cl)CCCCC1=O (racemic) [intranasal racemic ketamine, 1:1 mixture of the two enantiomers of ketamine: (R)-2-(2-chlorophenyl)-2-(methylamino)cyclohexanone and (S)-2-(2-chlorophenyl)-2-(methylamino)cyclohexanone]
[1]; Subject 1, baseline 7 units
  S-STS CMCM score (range 0-9; risk of suicide at this time, FIGS. 20A-20B): 3 units
[1]; Subject 1, Day 9
  S-STS CMCM score (range 0-9; risk of suicide at this time): 2 units
[1]; Subject 2, from 7 units
  S-STS CMCM score (range 0-9; risk of suicide at this time, FIGS. 20A-20B): 3 units
[1]; Subject 2, Day 9
  S-STS CMCM score (range 0-9; risk of suicide at this time): zero
[1]; Subjects 1 and 2, Day 8
  S-STS CMCM score (range 0-9; risk of suicide at this time): 2 units
[2]; 90 mg IN+SOC
  sustained response on MADRS Item 10, time after the final administration: 15 days
[2]; 90 mg IN+SOC, Subject 1, range 0-6
  MADRS item 10 (suicidality) score: 0 units
[2]; 90 mg IN+SOC, second subject (not given)
  MADRS item 10 (suicidality) score: 0 units
[2]; 24 hours post-dose
  subjects who experienced MADRS Item 10 response: 94.1%
[2]; Day 1
  MADRS Item 10 mean score: 0.8
  MADRS Suicide Item-10 response rate: 94%
[2]; Day 16
  subjects who experienced MADRS Item 10 response: 100%
  MADRS Suicide Item-10 response rate: 100%
[2]; Day 29
  MADRS Item 10 mean score: 0.0
[2]; study end (Day 29/30)
  subjects who experienced MADRS Item 10 response: 100%
